ChEMBL document CHEMBL3864145, “Synthesis and biological evaluation of crown ether acyl derivatives” (Bioorg Med Chem Lett, 2016)
≈ marks a conversion by molar mass, not a printed value.

Legend:
[1] = Cytotoxicity against human WiDr cells assessed as growth inhibition after 48 hrs by SRB assay; format: functional
[2] = Cytotoxicity against human HeLa cells assessed as growth inhibition after 48 hrs by SRB assay; format: functional
[3] = Cytotoxicity against human SW1573 cells assessed as growth inhibition after 48 hrs by SRB assay; format: functional; conditions: SW1573, 48 h
Staphylococcus aureus [4] = experiment: Antibacterial activity against Staphylococcus aureus ATCC 25923 at 50 uM after 24 hrs by UV/Vis spectrophotometer relative to control; format: functional; conditions: ATCC 25923, 24 h
[5] = Cytotoxicity against human HBL100 cells assessed as growth inhibition after 48 hrs by SRB assay; format: functional; conditions: HBL-100, 48 h
Enterococcus faecalis = experiment: Antibacterial activity against Enterococcus faecalis ATCC 29212 at 50 uM after 24 hrs by UV/Vis spectrophotometer relative to control; format: functional; conditions: ATCC 29212, 24 h
Escherichia coli = experiment: Antibacterial activity against Escherichia coli ATCC 25922 at 50 uM after 24 hrs by UV/Vis spectrophotometer relative to control; format: functional; conditions: ATCC 25922, 24 h
Candida albicans [6] = experiment: Antifungal activity against Candida albicans ATCC 90028 at 50 uM after 48 hrs by UV/Vis spectrophotometer relative to control; format: functional; conditions: ATCC 90028, 48 h
[7] = Cytotoxicity against telomerase-immortalized human BJ cells assessed as growth inhibition after 48 hrs by SRB assay; format: toxicity, cell-based
Staphylococcus aureus [8] = experiment: Antibacterial activity against Staphylococcus aureus ATCC 25923 by broth microdilution method; format: functional
[9] = Ratio of MIC50 for Staphylococcus aureus ATCC 25923 to GI50 for human HBL100 cells; format: functional, HBL-100
[10] = Ratio of MIC50 for Staphylococcus aureus ATCC 25923 to GI50 for human SW1573 cells; format: functional
[11] = Ratio of MIC50 for Staphylococcus aureus ATCC 25923 to GI50 for human HeLa cells; format: functional
[12] = Ratio of MIC50 for Staphylococcus aureus ATCC 25923 to GI50 for human WiDr cells; format: functional
Candida albicans [13] = experiment: Antifungal activity against Candida albicans ATCC 90028 by broth microdilution method; format: functional

## O=C(OCC1COCCOCCOCCOCCOCCO1)c1cccnc1 (stereo unspecified)
[1]
  GI50: > 100 µM
[2]
  GI50: > 100 µM
[3]
  GI50: > 100 µM
Staphylococcus aureus [4]
  inhibition at 50 µM: 0%
[5]
  GI50: > 100 µM
Enterococcus faecalis
  inhibition at 50 µM: 6.8%
Escherichia coli
  inhibition at 50 µM: 6.2%
Candida albicans [6]
  inhibition at 50 µM: 24%

## O=C(CCCCc1ccccc1)OCC1COCCOCCOCCOCCOCCO1 (stereo unspecified)
[1]
  GI50: > 100 µM
[2]
  GI50: 52 µM
[3]
  GI50: > 100 µM
Staphylococcus aureus [4]
  inhibition at 50 µM: 0%
[5]
  GI50: 69 µM
Enterococcus faecalis
  inhibition at 50 µM: 0.3%
Escherichia coli
  inhibition at 50 µM: 5%
Candida albicans [6]
  inhibition at 50 µM: 5.5%

## CC/C=C/CC(=O)OCC1COCCOCCOCCOCCOCCO1 (stereo unspecified)
[1]
  GI50: > 100 µM
[2]
  GI50: > 100 µM
[3]
  GI50: > 100 µM
Staphylococcus aureus [4]
  inhibition at 50 µM: 6.9%
[5]
  GI50: > 100 µM
Enterococcus faecalis
  inhibition at 50 µM: 4.7%
Escherichia coli
  inhibition at 50 µM: 4.3%
Candida albicans [6]
  inhibition at 50 µM: 9.4%

## CC(C)=CC1C(C(=O)OCC2COCCOCCOCCOCCOCCO2)C1(C)C (stereo unspecified)
[1]
  GI50: 56 µM
[2]
  GI50: 63 µM
[3]
  GI50: 54 µM
Staphylococcus aureus [4]
  inhibition at 50 µM: 0%
[7]
  GI50 at 48 h: > 100 µM
[5]
  GI50: 40 µM
Enterococcus faecalis
  inhibition at 50 µM: 0%
Escherichia coli
  inhibition at 50 µM: 0%
Candida albicans [6]
  inhibition at 50 µM: 0%

## O=C(/C=C/c1ccccc1)OCC1COCCOCCOCCOCCOCCO1 (stereo unspecified)
[1]
  GI50: > 100 µM
[2]
  GI50: 48 µM
[3]
  GI50: 48 µM
Staphylococcus aureus [4]
  inhibition at 50 µM: 3.4%
[5]
  GI50: 57 µM
Enterococcus faecalis
  inhibition at 50 µM: 3.3%
Escherichia coli
  inhibition at 50 µM: 5.9%
Candida albicans [6]
  inhibition at 50 µM: 36.7%

## O=C(O)c1cn(C2CC2)c2cc(N3CCNCC3)c(F)cc2c1=O [CIPROFLOXACIN]
Staphylococcus aureus [8]
  MIC90: 0.5 µg/mL

## O=C(OCC1COCCOCCOCCOCCOCCO1)c1cccc(-c2ccc(Br)cc2)c1 (stereo unspecified)
[1]
  GI50: 6.2 µM
[2]
  GI50: 7.8 µM
[3]
  GI50: 4.4 µM
Staphylococcus aureus [4]
  inhibition at 50 µM: 98%
[7]
  GI50 at 48 h: 8.2 µM
[5]
  GI50: 6.4 µM
Enterococcus faecalis
  inhibition at 50 µM: 0%
Escherichia coli
  inhibition at 50 µM: 6.5%
Candida albicans [6]
  inhibition at 50 µM: 1%
Staphylococcus aureus [8]
  MIC50: 6.8 µg/mL
  MIC90: 25 µM

## COc1ccc(/C=C/C(=O)OCC2COCCOCCOCCOCCOCCO2)cc1 (stereo unspecified)
[1]
  GI50: 56 µM
[2]
  GI50: 56 µM
[3]
  GI50: 54 µM
Staphylococcus aureus [4]
  inhibition at 50 µM: 0%
[7]
  GI50 at 48 h: > 100 µM
[5]
  GI50: 50 µM
Enterococcus faecalis
  inhibition at 50 µM: 0%
Escherichia coli
  inhibition at 50 µM: 7.3%
Candida albicans [6]
  inhibition at 50 µM: 0%

## O=C(OCC1COCCOCCOCCOCCOCCO1)c1c2ccccc2cc2ccccc12 (stereo unspecified)
[1]
  GI50: 5.6 µM
[9]
  Ratio: 4
[10]
  Ratio: 4
[2]
  GI50: 3.7 µM
[3]
  GI50: 3.8 µM
Staphylococcus aureus [4]
  inhibition at 50 µM: 98%
[11]
  Ratio: 4
[7]
  GI50 at 48 h: 5.4 µM
[5]
  GI50: 5 µM
Enterococcus faecalis
  inhibition at 50 µM: 0%
Escherichia coli
  inhibition at 50 µM: 7.8%
Candida albicans [6]
  inhibition at 50 µM: 4.3%
Staphylococcus aureus [8]
  MIC50: 11.1 µg/mL
  MIC90: 50 µM
[12]
  Ratio: 4

## O=C(CCCCCCCCCCOc1ccccc1)OCC1COCCOCCOCCOCCOCCO1 (stereo unspecified)
[1]
  GI50: 66 µM
[2]
  GI50: 41 µM
[3]
  GI50: 24 µM
Staphylococcus aureus [4]
  inhibition at 50 µM: 29%
Candida albicans [13]
  MIC90: 36 µM
[7]
  GI50 at 48 h: 24 µM
[5]
  GI50: 20 µM
Enterococcus faecalis
  inhibition at 50 µM: 2.1%
Escherichia coli
  inhibition at 50 µM: 0%
Candida albicans [6]
  inhibition at 50 µM: 101%

## O=C(CCc1ccc2ccc3cccc4ccc1c2c34)OCC1COCCOCCOCCOCCOCCO1 (stereo unspecified)
[1]
  GI50: 19 µM
[2]
  GI50: 17 µM
[3]
  GI50: 18 µM
Staphylococcus aureus [4]
  inhibition at 50 µM: 99%
Candida albicans [13]
  MIC50: 20.1 µg/mL (≈ 36.5 µM)
  MIC90: 42 µM
[7]
  GI50 at 48 h: 19 µM
[5]
  GI50: 21 µM
Enterococcus faecalis
  inhibition at 50 µM: 0%
Escherichia coli
  inhibition at 50 µM: 0%
Candida albicans [6]
  inhibition at 50 µM: 101%
Staphylococcus aureus [8]
  MIC50: 7.2 µM
  MIC90: 8.3 µM

## O=C(CCCCC1CCCCC1)OCC1COCCOCCOCCOCCOCCO1 (stereo unspecified)
[1]
  GI50: 33 µM
[2]
  GI50: 71 µM
[3]
  GI50: 51 µM
Staphylococcus aureus [4]
  inhibition at 50 µM: 61%
[5]
  GI50: 72 µM
Enterococcus faecalis
  inhibition at 50 µM: 0%
Escherichia coli
  inhibition at 50 µM: 0%
Candida albicans [6]
  inhibition at 50 µM: 0%

## COc1cc([C@@H]2c3cc4c(cc3[C@@H](O[C@@H]3O[C@@H]5CO[C@@H](C)O[C@H]5[C@H](O)[C@H]3O)[C@H]3COC(=O)[C@H]23)OCO4)cc(OC)c1O [ETOPOSIDE]
[1]
  GI50: 23 µM
[2]
  GI50: 3.3 µM
[3]
  GI50: 15 µM
[5]
  GI50: 1.4 µM

## O=C(CCCCC1CCCCC1)OCC1COCCOCCOCCOCCO1 (stereo unspecified)
[1]
  GI50: > 100 µM
[2]
  GI50: > 100 µM
[3]
  GI50: > 100 µM
Staphylococcus aureus [4]
  inhibition at 50 µM: 0%
[5]
  GI50: > 100 µM
Enterococcus faecalis
  inhibition at 50 µM: 0%
Escherichia coli
  inhibition at 50 µM: 3.1%
Candida albicans [6]
  inhibition at 50 µM: 0%

## O=C(Cc1cccc(OCc2ccccc2)c1)OCC1COCCOCCOCCOCCOCCO1 (stereo unspecified)
[1]
  GI50: 24 µM
[2]
  GI50: 35 µM
[3]
  GI50: 36 µM
Staphylococcus aureus [4]
  inhibition at 50 µM: 0%
[7]
  GI50 at 48 h: 22 µM
[5]
  GI50: 29 µM
Enterococcus faecalis
  inhibition at 50 µM: 0%
Escherichia coli
  inhibition at 50 µM: 3.6%
Candida albicans [6]
  inhibition at 50 µM: 0%

## O=C(CCCCOc1ccccc1)OCC1COCCOCCOCCOCCOCCO1 (stereo unspecified)
[1]
  GI50: > 100 µM
[2]
  GI50: > 100 µM
[3]
  GI50: > 100 µM
Staphylococcus aureus [4]
  inhibition at 50 µM: 0%
[5]
  GI50: > 100 µM
Enterococcus faecalis
  inhibition at 50 µM: 3.5%
Escherichia coli
  inhibition at 50 µM: 8.1%
Candida albicans [6]
  inhibition at 50 µM: 1.6%

## O=C(CCCCC1CCCCC1)OCC1COCCOCCOCCO1 (stereo unspecified)
[1]
  GI50: > 100 µM
[2]
  GI50: > 100 µM
[3]
  GI50: > 100 µM
Staphylococcus aureus [4]
  inhibition at 50 µM: 0%
[5]
  GI50: > 100 µM
Enterococcus faecalis
  inhibition at 50 µM: 0%
Escherichia coli
  inhibition at 50 µM: 4.9%
Candida albicans [6]
  inhibition at 50 µM: 0%

## O=C(CCCCCc1ccccc1)OCC1COCCOCCOCCOCCOCCO1 (stereo unspecified)
[1]
  GI50: > 100 µM
[2]
  GI50: 79 µM
[3]
  GI50: 78 µM
Staphylococcus aureus [4]
  inhibition at 50 µM: 0%
[5]
  GI50: 64 µM
Enterococcus faecalis
  inhibition at 50 µM: 0%
Escherichia coli
  inhibition at 50 µM: 5.8%
Candida albicans [6]
  inhibition at 50 µM: 11%

## O=C(CCCc1cc2ccccc2[nH]1)OCC1COCCOCCOCCOCCOCCO1 (stereo unspecified)
[1]
  GI50: > 100 µM
[2]
  GI50: > 100 µM
[3]
  GI50: > 100 µM
[5]
  GI50: > 100 µM

## CC1(C(=O)OCC2COCCOCCOCCOCCOCCO2)c2ccccc2-c2ccccc21 (stereo unspecified)
[1]
  GI50: 12 µM
[2]
  GI50: 12 µM
[3]
  GI50: 8.8 µM
Staphylococcus aureus [4]
  inhibition at 50 µM: 0%
[7]
  GI50 at 48 h: 18 µM
[5]
  GI50: 11 µM
Enterococcus faecalis
  inhibition at 50 µM: 0%
Escherichia coli
  inhibition at 50 µM: 0.1%
Candida albicans [6]
  inhibition at 50 µM: 0%

## CC(=O)OCC1COCCOCCOCCOCCOCCO1 (stereo unspecified)
[1]
  GI50: > 100 µM
[2]
  GI50: > 100 µM
[3]
  GI50: > 100 µM
[5]
  GI50: > 100 µM

## C[C@@H]1[C@H](O)[C@@H](C)/C=C/C=C/C=C/C=C/C=C/C=C/C=C/[C@H](O[C@@H]2O[C@H](C)[C@@H](O)[C@H](N)[C@@H]2O)C[C@@H]2O[C@](O)(C[C@@H](O)C[C@@H](O)[C@H](O)CC[C@@H](O)C[C@@H](O)CC(=O)O[C@H]1C)C[C@H](O)[C@H]2C(=O)O [AMPHOTERICIN B]
Candida albicans [13]
  MIC90: 0.5 µg/mL
